For the data set, the system named is corneal esterase enzymes. As to the kind of experiment: Enzymatic hydrolysis of fluprostenol 1,15-lactone by corneal esterase enzymes (incubation with bovine corneal tissue; TLC and HPLC analysis). The data set is classed as in vitro ADME. The note with it: pH 7.4 phosphate buffered saline, 37° C. As to the method:
Enzymatic hydrolysis of fluprostenol 1,15-lactone by corneal esterase enzymes was documented by suspending 500 μg of fluprostenol 1,15-lactone in 10 ml of pH 7.4 phosphate buffered saline containing approximately 40 mg of freshly collected bovine cornea! tissue. The mixture was incubated at 37° C. and analyzed at 2 hour, 4 hour and 18 hour time intervals by Thin Layer Chromatography (TLC; Analtech silica gel G-60 plates) using 40:60 acetone:dichloromethane containing 0.5% acetic acid. The plates were visualized by spraying with vanillin dissolved in methanol and phosphoric acid; followed by charring on a hot plate. PGF2α methyl ester, which is known to be hydrolyzed by corneal esterases, was subjected to the same procedure as a control.
The results are shown in FIGS. 3A-3D which are images of chromatography plates developed at 2 hours (FIGS. 3A and 3C) and 4 hours (FIGS. 3B and 3D), respectively. […]
The mixture of fluprostenol 1,15-lactone and bovine corneal tissue was also analyzed using HPLC under the conditions specified in FIGS. 4A and 4B which are graphic representations of the HPLC analysis results for a fluprostenol 1,15-lactone standard (FIG. 4A) and a mixture of fluprostenol 1,15-lactone and bovine corneal tissue incubated for 4 hours (FIG. 4B).

These results are taken from patent publication US20080070978A1, “Internal 1,15-Lactones Of Fluprostenol And Related Prostaglandin F2a Analogs And Their Use In The Treatment Of Glaucoma And Intraocular Hypertension” (priority 2000, published 2008).

Molecules are shown by their SMILES.

On to `O=C1CCC/C=C\CC2C(/C=C/[C@@H](COc3cccc(C(F)(F)F)c3)O1)[C@H](O)C[C@@H]2O` (some centres unmarked) [fluprostenol 1,15-lactone], for which the “conversion of fluprostenol 1,15-lactone to fluprostenol free acid” value (HPLC, after 4 hours) is “more than 50%”. For the same compound, for the setting “TLC, by 4 hours”, the “release of the free acid by hydrolysis” value is recorded as “clearly shown”.
